Consider 17 compounds from ChEMBL document CHEMBL4602625, “Synthesis, biological evaluation and SAR studies of ursolic acid 3β-ester derivatives as novel CETP inhibitors” (Bioorg Med Chem Lett, 2020).

What is called inhibition is the relative decrease from the control value, in per cent. A high value points to strong suppression. A word on the IC50: it is the point on the concentration scale where inhibition reaches its midpoint. Lower therefore signals greater potency.

SMILES strings stand for the structures.

For one test, the target named is T1, Cholesteryl ester transfer protein (Homo sapiens) (UniProt P11597).
T1 sequence (whole entry): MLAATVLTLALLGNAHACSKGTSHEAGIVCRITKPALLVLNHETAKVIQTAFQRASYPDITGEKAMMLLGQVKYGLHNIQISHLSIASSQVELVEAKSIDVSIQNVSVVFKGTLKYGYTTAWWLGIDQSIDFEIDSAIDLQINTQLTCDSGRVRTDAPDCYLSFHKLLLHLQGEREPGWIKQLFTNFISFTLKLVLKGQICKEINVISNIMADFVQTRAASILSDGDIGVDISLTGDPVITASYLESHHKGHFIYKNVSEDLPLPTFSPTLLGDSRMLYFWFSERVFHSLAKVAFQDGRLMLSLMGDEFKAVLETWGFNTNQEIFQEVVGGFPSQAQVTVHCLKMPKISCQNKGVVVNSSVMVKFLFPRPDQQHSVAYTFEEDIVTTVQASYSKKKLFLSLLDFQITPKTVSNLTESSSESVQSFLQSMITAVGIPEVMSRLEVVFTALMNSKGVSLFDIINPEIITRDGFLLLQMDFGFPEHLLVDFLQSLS
In words: Inhibition of human CETP at 10 uM relative to control.
Compound `C[C@H]1[C@H](C)CC[C@]2(C(=O)O)CC[C@]3(C)C(=CC[C@@H]4[C@@]5(C)CC[C@H](OC(=O)CCCC(=O)O)C(C)(C)[C@@H]5CC[C@]43C)[C@H]12` came in with an inhibition of 55.1%. On the same count and under the same terms, with `C[C@H]1[C@H](C)CC[C@]2(C(=O)O)CC[C@]3(C)C(=CC[C@@H]4[C@@]5(C)CC[C@H](OC(=O)CCC(=O)O)C(C)(C)[C@@H]5CC[C@]43C)[C@H]12` the figure was 42.8%; with `C[C@H]1[C@H](C)CC[C@]2(C(=O)O)CC[C@]3(C)C(=CC[C@@H]4[C@@]5(C)CC[C@H](OC(=O)CC6(CC(=O)O)CCCC6)C(C)(C)[C@@H]5CC[C@]43C)[C@H]12`, 0%; with `C[C@H]1[C@H](C)CC[C@]2(C(=O)O)CC[C@]3(C)C(=CC[C@@H]4[C@@]5(C)CC[C@H](OC(=O)c6cccnc6)C(C)(C)[C@@H]5CC[C@]43C)[C@H]12`, 11.2%.

Consider `C[C@H]1[C@H](C)CC[C@]2(C(=O)O)CC[C@]3(C)C(=CC[C@@H]4[C@@]5(C)CC[C@H](OC(=O)c6ccccc6C(=O)O)C(C)(C)[C@@H]5CC[C@]43C)[C@H]12`, for which the inhibition is 47.9%. Turning to `C[C@H]1[C@H](C)CC[C@]2(C(=O)O)CC[C@]3(C)C(=CC[C@@H]4[C@@]5(C)CC[C@H](OC(=O)c6cccc(C(=O)O)c6)C(C)(C)[C@@H]5CC[C@]43C)[C@H]12`, the inhibition was 61.8%. In the case of `C[C@H]1[C@H](C)CC[C@]2(C(=O)O)CC[C@]3(C)C(=CC[C@@H]4[C@@]5(C)CC[C@H](OC(=O)CC6(CC(=O)O)CCCCC6)C(C)(C)[C@@H]5CC[C@]43C)[C@H]12`, the inhibition was found to be 1.5%. Still for that read-out and setting: the same measure for `C[C@H]1[C@H](C)CC[C@]2(C(=O)O)CC[C@]3(C)C(=CC[C@@H]4[C@@]5(C)CC[C@H](OC(=O)c6ccc(C(=O)O)cc6)C(C)(C)[C@@H]5CC[C@]43C)[C@H]12`: 24.5%; for `CC(CC(=O)O)CC(=O)O[C@H]1CC[C@]2(C)[C@H]3CC=C4[C@@H]5[C@@H](C)[C@H](C)CC[C@]5(C(=O)O)CC[C@@]4(C)[C@]3(C)CC[C@H]2C1(C)C` (some centres not stated): 1.1%; for `C[C@H]1[C@H](C)CC[C@]2(C(=O)O)CC[C@]3(C)C(=CC[C@@H]4[C@@]5(C)CC[C@H](OC(=O)CC(C)(C)CC(=O)O)C(C)(C)[C@@H]5CC[C@]43C)[C@H]12`: 0%. `C[C@H]1[C@H](C)CC[C@]2(C(=O)O)CC[C@]3(C)C(=CC[C@@H]4[C@@]5(C)CC[C@H](OC(=O)C6CC6C(=O)O)C(C)(C)[C@@H]5CC[C@]43C)[C@H]12` (some centres not stated) gave an inhibition of 53.2%.

In turn, `C[C@H]1[C@H](C)CC[C@]2(C(=O)O)CC[C@]3(C)C(=CC[C@@H]4[C@@]5(C)CC[C@H](OC(=O)c6ccccc6)C(C)(C)[C@@H]5CC[C@]43C)[C@H]12` returned an inhibition of 22.7%. Consider `COc1cc(F)c(C(C)C)cc1-c1ccc(C(F)(F)F)cc1CN1C(=O)O[C@H](c2cc(C(F)(F)F)cc(C(F)(F)F)c2)[C@@H]1C`, for which the inhibition came out at 88.4%. `C[C@H]1[C@H](C)CC[C@]2(C(=O)O)CC[C@]3(C)C(=CC[C@@H]4[C@@]5(C)CC[C@H](OC(=O)CCCCC(=O)O)C(C)(C)[C@@H]5CC[C@]43C)[C@H]12` had an inhibition of 23.3%. `C[C@H]1[C@H](C)CC[C@]2(C(=O)O)CC[C@]3(C)C(=CC[C@@H]4[C@@]5(C)CC[C@H](OC(=O)C6C(C(=O)O)C6(C)C)C(C)(C)[C@@H]5CC[C@]43C)[C@H]12` (some centres not stated) yielded an inhibition of 9%. The same measure, in the same setting: the same measure for `C[C@H]1[C@H](C)CC[C@]2(C(=O)O)CC[C@]3(C)C(=CC[C@@H]4[C@@]5(C)CC[C@H](OC(=O)CCCCCC(=O)O)C(C)(C)[C@@H]5CC[C@]43C)[C@H]12`: 11.1%.

The target in a further test is T2, Cholesteryl ester transfer protein (Homo sapiens, UniProt P11597).
T2 sequence (P11597 whole entry): T1 sequence (whole entry)
As to the kind of experiment: Inhibition of human CETP.
On to `C[C@H]1[C@H](C)CC[C@]2(C(=O)O)CC[C@]3(C)C(=CC[C@@H]4[C@@]5(C)CC[C@H](OC(=O)CCCC(=O)O)C(C)(C)[C@@H]5CC[C@]43C)[C@H]12`, for which the IC50 came out at 3.2 µM. In turn, `C[C@H]1[C@H](C)CC[C@]2(C(=O)O)CC[C@]3(C)C(=CC[C@@H]4[C@@]5(C)CC[C@H](OC(=O)CCC(=O)O)C(C)(C)[C@@H]5CC[C@]43C)[C@H]12` yielded an IC50 of 10.9 µM. Same read-out and setting: the same measure for `C[C@H]1[C@H](C)CC[C@]2(C(=O)O)CC[C@]3(C)C(=CC[C@@H]4[C@@]5(C)CC[C@H](OC(=O)c6ccccc6C(=O)O)C(C)(C)[C@@H]5CC[C@]43C)[C@H]12`: 5.5 µM. `C[C@H]1[C@H](C)CC[C@]2(C(=O)O)CC[C@]3(C)C(=CC[C@@H]4[C@@]5(C)CC[C@H](OC(=O)c6cccc(C(=O)O)c6)C(C)(C)[C@@H]5CC[C@]43C)[C@H]12`: half-maximal inhibition (IC50) was put at 3.3 µM. The compound `C[C@H]1[C@H](C)CC[C@]2(C(=O)O)CC[C@]3(C)C(=CC[C@@H]4[C@@]5(C)CC[C@H](O)C(C)(C)[C@@H]5CC[C@]43C)[C@H]12` [URSOLIC ACID] yielded a 50% inhibitory concentration (IC50) of more than 50 µM. On the same count and under the same terms, the same measure for `C[C@H]1[C@H](C)CC[C@]2(C(=O)O)CC[C@]3(C)C(=CC[C@@H]4[C@@]5(C)CC[C@H](OC(=O)C6CC6C(=O)O)C(C)(C)[C@@H]5CC[C@]43C)[C@H]12` (some centres not stated): 2.4 µM.
